In patent US5091187A, “Phospholipid-coated microcrystals: injectable formulations of water-insoluble drugs” (priority 1991, dated 1992):
≈ marks a conversion by molar mass, not a printed value. Counter-ions that a name gives are not always drawn.

What was measured:
injected muscle = experiment: IM injection of albendazole sulfoxide preparations in rats; format: in vivo, rat; conditions: versus albendazole
Procedure: The above experimentation was repeated with albendazole sulfoxide, a more water-soluble analogue of the drug. […] Solubility data for albendazole sulfoxide are: 0.42 mg/ml in water, 17.7 mg/ml in propylene glycol and 179.0 mg/ml in ethanol. […] Both preparations normally settled to albendazole sulfoxide concentrations of 20% (w/v). Samples (0.1 ml) of both preparations were injected IM in rats (n=6) and the muscles were examined at necropsy, 2 days post-injection. […] Propylene glycol, which has two OH groups and a dielectric constant of 32, is an example of a polar organic compound which can be substituted for water.

[1] = IV injection; cited from earlier work
[2] = water
[3] = pKa and oil/water partition of indomethacin; format: physicochemical
human skin = experiment: Pin prick anesthesia after intradermal injection, human self-experimentation; conditions: in vivo
Procedure: The Inventor carried out self-experimentation with Preparation B. I made two intradermal injections of 0.15 ml of Preparation B into the skin of my calf, right leg, inside, at sites 12 cm and 22 cm below the knee. The injections raised weals approx. 1.1 cm in diameter. […] The weals subsided within ca. 30 sec. The injected sites were tested for pin prick and cold stimulus anesthesia for the next 24 hr.
As a control for the above, I injected myself with 0.15 ml volumes of solutions of 1%, 2% and 5% tetracaine-H-Cl. In attempt to make the concentrated solutions less damaging, the pH was adjusted from 5.3 to 6.5. Physiological tonicity was maintained by including glucose (4.3%, 3.2% and 0%, respectively). […] The 1% and 2% tetracaine-H-Cl solutions produced only mild erthrema, with return to normal color when the anesthesia subsided. […] The presented anesthesia values were taken at its periphery. […] This poor outcome with the 5% (w/v) tetracaine solution is in stark contrast to the excellent results obtained with the 20% (w/v) tetracaine-H-I microcrystal.

surgical wounds = conditions: crystals sprinkled into surgical wounds; cited from earlier work

For `O=C1CN(/N=C/c2ccc(-c3ccc([N+](=O)[O-])cc3)o2)C(O)=N1` [Dantrolene], the “dissolution in organic solvents” value (Solubility; 7.9 mg in mineral oil, n-dibutyl ether, methoxyflurane) was “did not dissolve”.

Work on `CCC[S+]([O-])c1ccc2[nH]c(NC(=O)OC)nc2c1` (stereo not shown) [albendazole sulfoxide] yielded a solubility (physchem; ethanol, organic solvent or mixture, solubility, in ethanol) of 179000 µg/mL (≈ 636000 µM), a solubility (physchem; propylene glycol, organic solvent or mixture, solubility, in propylene glycol) of 17700 µg/mL (≈ 62900 µM) and a solubility (physchem; water, aqueous solubility) of 420 µg/mL (≈ 1490 µM). For the same compound, the “rate of absorption into the blood” value (injected muscle) was “Faster rates of absorption into the blood”.

Work on `CC[C@H]1OC(=O)[C@H](C)[C@@H](O[C@H]2C[C@@](C)(OC)[C@@H](O)[C@H](C)O2)[C@H](C)[C@@H](O[C@@H]2O[C@H](C)C[C@H](N(C)C)[C@H]2O)[C@](C)(O)C[C@@H](C)C(=O)[C@H](C)[C@@H](O)[C@]1(C)O` [erythromycin] yielded a solubility (physchem; water) of 2000 µg/mL (≈ 2730 µM).

In the case of `CCCC(C)C1(CC)C(=O)NC(=S)NC1=O` (stereo not shown) [thiopental], the listed adverse reactions [1] is listed as “venous thrombosis or phlebitis extending from the site of injection”.

With `CN(C)[C@@H]1C(=O)C(C(N)=O)=C(O)[C@@]2(O)C(=O)C3=C(O)c4c(O)cccc4[C@@](C)(O)[C@H]3[C@H](O)[C@@H]12` [OTC, oxytetracycline] the solubility (physchem; water, aqueous solubility) was about 1000 µg/mL (≈ 2170 µM).

With `CN(C)[C@@H]1C(=O)C(C(N)=O)=C(O)[C@@]2(O)C(=O)C3=C(O)c4c(O)cccc4[C@@](C)(O)[C@H]3[C@H](O)[C@@H]12` [oxytetracycline] the aqueous solubility [2] was 1100 µg/mL (≈ 2390 µM).

In the case of `COc1ccc2c(c1)c(CC(=O)O)c(C)n2C(=O)c1ccc(Cl)cc1` [Indomethacin], the oil/water partition coefficient ([3]; olive oil/water) is reported as 55/1, the oil/water partition coefficient ([3]; pentanol/water) is reported as 85/1 and the solubility (Solubility; pH 9.6) is reported as 30000 µg/mL (≈ 83800 µM). The solubility (Solubility; water, pH 7, water) was 376 µg/mL (≈ 1050 µM).

`CCCSc1ccc2nc(NC(=O)OC)[nH]c2c1` [albendazole] gave a solubility (physchem; water, aqueous solubility) of under 100 µg/mL.

In the case of `CCCCNc1ccc(C(=O)OCCN(C)C)cc1` [hydroiodic acid (HI) salt of tetracaine, tetracaine-H-I], the “extension of duration of action” value (human skin) is given as 5 -fold and the “duration of local anesthesia” value (surgical wounds) is given as 45 h.
